# Test results taken from ChEMBL document CHEMBL1150940, “New melampolides from Schkuhria schkuhrioides” (1998).
# How the values were obtained:
# [1] = Cytotoxicity against human COLON cells; format: functional; settings: read-out: ED50 (the source's name)
# [2] = Cytotoxicity against human UISO cells; format: functional; settings: read-out: ED50 (the source's name)
structure (smiles),measurement,setting,value
C=C1C(=O)O[C@@H]2/C=C(\C)CC/C=C(/C=O)C[C@@H](O)[C@@H]12,EC50,[1],0.9 µg/mL
same,EC50,[2],1.82 µg/mL
